From ChEMBL document CHEMBL1201862, “PubChem BioAssay data set” (2004)
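Protocol summary: plate cells (96-well), add compound at 5 concentrations, incubate 48 h, interpolate endpoints linearly. GI50 marks 50% less growth.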 Active and inactive are the calls of the source. Rule as the data show it: active = GI50 up to about 1.1 µM and inactive = higher.

Columns and labels:
Assay in all cases: inhibition of tumour cell growth, NCI panel, 48 h
[1] = system: NCI-H226
[2] = system: OVCAR-8
[3] = system: SK-OV-3
[4] = system: SR
[5] = system: COLO 205
[6] = system: TK-10
[7] = system: CCRF-CEM
[8] = system: SK-MEL-5
[9] = system: SF-268
[10] = system: HCT-116
[11] = system: M19-MEL
[12] = system: DLD-1
[13] = system: SK-MEL-28
[14] = system: NCI-H460
[15] = system: UACC-257
[16] = system: NCI-H23
[17] = system: SNB-19
[18] = system: OVCAR-5
[19] = system: CAKI-1
[20] = system: UO-31
[21] = system: RPMI-8226
[22] = system: HL-60
[23] = system: A549
[24] = system: 786-0
[25] = system: OVCAR-3
[26] = system: DMS-114
[27] = system: HCT-15
[28] = system: LXFL 529
[29] = system: LOX IMVI
[30] = system: U-251
[31] = system: ACHN
[32] = system: SW-620
[33] = system: A498
[34] = system: HOP-92
[35] = system: Malme-3M
[36] = system: HT-29
[37] = system: SF-295
[38] = system: SN12C
[39] = system: HOP-62
[40] = system: UACC-62
[41] = system: K562
[42] = system: KM-20L2
[43] = system: DMS-273
[44] = system: HOP-18
[45] = system: MOLT-4
[46] = system: OVCAR-4
[47] = system: HCC 2998
[48] = system: IGROV-1
[49] = system: M14
[50] = system: EKVX
[51] = system: SF-539
[52] = system: RXF 393
[53] = system: SNB-75
[54] = system: SK-MEL-2
[55] = system: KM12
[56] = system: SNB-78

O=C(O)CSc1ccc2nc3ccccc3c(O)c2c1
GI50 [1]: > 100 µM (inactive) | GI50 [2]: > 100 µM (inactive) | GI50 [3]: > 100 µM (inactive) | GI50 [4]: > 100 µM (inactive) | GI50 [5]: > 100 µM (inactive) | GI50 [6]: > 100 µM (inactive) | GI50 [7]: > 100 µM (inactive) | GI50 [8]: > 100 µM (inactive) | GI50 [9]: > 100 µM (inactive) | GI50 [10]: > 100 µM (inactive) | GI50 [11]: > 100 µM (inactive) | GI50 [12]: > 100 µM (inactive) | GI50 [13]: > 100 µM (inactive) | GI50 [14]: > 100 µM (inactive) | GI50 [15]: > 100 µM (inactive) | GI50 [16]: > 100 µM (inactive) | GI50 [17]: > 100 µM (inactive) | GI50 [18]: > 100 µM (inactive) | GI50 [19]: > 100 µM (inactive) | GI50 [20]: > 100 µM (inactive) | GI50 [21]: > 100 µM (inactive) | GI50 [22]: > 100 µM (inactive) | GI50 [23]: > 100 µM (inactive) | GI50 [24]: > 100 µM (inactive) | GI50 [25]: > 100 µM (inactive) | GI50 [26]: > 100 µM (inactive) | GI50 [27]: > 100 µM | GI50 [28]: > 100 µM (inactive) | GI50 [29]: > 100 µM (inactive) | GI50 [30]: > 100 µM (inactive) | GI50 [31]: > 100 µM (inactive) | GI50 [32]: > 100 µM (inactive) | GI50 [33]: > 100 µM (inactive) | GI50 [34]: > 100 µM (inactive) | GI50 [35]: > 100 µM (inactive) | GI50 [36]: > 100 µM (inactive) | GI50 [37]: > 100 µM (inactive) | GI50 [38]: > 100 µM (inactive) | GI50 [39]: > 100 µM (inactive) | GI50 [40]: > 100 µM (inactive) | GI50 [41]: > 100 µM (inactive) | GI50 [42]: > 100 µM (inactive) | GI50 [43]: > 100 µM (inactive) | GI50 [44]: > 100 µM (inactive) | GI50 [45]: > 100 µM (inactive) | GI50 [46]: > 100 µM (inactive) | GI50 [47]: > 100 µM (inactive) | GI50 [48]: > 100 µM (inactive) | GI50 [49]: > 100 µM (inactive)

Cc1ccc(Oc2ccc(C)cc2N)cc1
GI50 [1]: 48.6 µM (inactive) | GI50 [50]: 71 µM (inactive) | GI50 [2]: > 100 µM (inactive) | GI50 [3]: > 100 µM (inactive) | GI50 [4]: 57.9 µM (inactive) | GI50 [5]: > 100 µM (inactive) | GI50 [6]: > 100 µM (inactive) | GI50 [7]: 41.6 µM (inactive) | GI50 [8]: 44.1 µM (inactive) | GI50 [9]: 97.7 µM (inactive) | GI50 [10]: > 100 µM (inactive) | GI50 [11]: > 100 µM (inactive) | GI50 [51]: > 100 µM (inactive) | GI50 [12]: 66.1 µM (inactive) | GI50 [13]: > 100 µM (inactive) | GI50 [14]: > 100 µM (inactive) | GI50 [15]: 80.9 µM (inactive) | GI50 [16]: 94.4 µM (inactive) | GI50 [17]: > 100 µM (inactive) | GI50 [18]: 68.4 µM (inactive) | GI50 [20]: 34.8 µM (inactive) | GI50 [21]: 97.9 µM (inactive) | GI50 [22]: 33.9 µM (inactive) | GI50 [23]: > 100 µM (inactive) | GI50 [52]: 31.5 µM (inactive) | GI50 [24]: 86.9 µM (inactive) | GI50 [25]: 36 µM (inactive) | GI50 [26]: 49.4 µM (inactive) | GI50 [27]: 48.5 µM | GI50 [28]: > 100 µM (inactive) | GI50 [29]: > 100 µM (inactive) | GI50 [53]: 16.5 µM (inactive) | GI50 [30]: 30.5 µM (inactive) | GI50 [32]: > 100 µM (inactive) | GI50 [33]: > 100 µM (inactive) | GI50 [34]: 32.3 µM (inactive) | GI50 [35]: > 100 µM (inactive) | GI50 [36]: 52.5 µM (inactive) | GI50 [54]: > 100 µM (inactive) | GI50 [37]: 96.4 µM (inactive) | GI50 [55]: > 100 µM (inactive) | GI50 [38]: 97.7 µM (inactive) | GI50 [39]: > 100 µM (inactive) | GI50 [40]: > 100 µM (inactive) | GI50 [56]: 75.5 µM (inactive) | GI50 [41]: 60.8 µM (inactive) | GI50 [42]: > 100 µM (inactive) | GI50 [43]: 75 µM (inactive) | GI50 [44]: > 100 µM (inactive) | GI50 [45]: 53 µM (inactive) | GI50 [46]: 68.9 µM (inactive) | GI50 [47]: > 100 µM (inactive) | GI50 [48]: > 100 µM (inactive) | GI50 [49]: > 100 µM (inactive)
